According to patent US20090124631A1, “Combination Therapy” (priority 2007, published 2009):

What was measured:
[1] = molecular target: T1, HDAC6 (Homo sapiens, UniProt Q9UBN7); experiment: Fluorescence-based HDAC enzyme assay, recombinant HDAC6; assay type: biochemical; details: recombinant human HDAC enzyme in vitro; read-out: IC50 (μM) HD6
T1 construct: HDAC6 and 8 were cloned as full length N-terminally His-tagged protein; His tag (N); made in house; host or cells: Sf-9 insect cells (baculovirus)
T1 sequence (Q9UBN7 1-1215): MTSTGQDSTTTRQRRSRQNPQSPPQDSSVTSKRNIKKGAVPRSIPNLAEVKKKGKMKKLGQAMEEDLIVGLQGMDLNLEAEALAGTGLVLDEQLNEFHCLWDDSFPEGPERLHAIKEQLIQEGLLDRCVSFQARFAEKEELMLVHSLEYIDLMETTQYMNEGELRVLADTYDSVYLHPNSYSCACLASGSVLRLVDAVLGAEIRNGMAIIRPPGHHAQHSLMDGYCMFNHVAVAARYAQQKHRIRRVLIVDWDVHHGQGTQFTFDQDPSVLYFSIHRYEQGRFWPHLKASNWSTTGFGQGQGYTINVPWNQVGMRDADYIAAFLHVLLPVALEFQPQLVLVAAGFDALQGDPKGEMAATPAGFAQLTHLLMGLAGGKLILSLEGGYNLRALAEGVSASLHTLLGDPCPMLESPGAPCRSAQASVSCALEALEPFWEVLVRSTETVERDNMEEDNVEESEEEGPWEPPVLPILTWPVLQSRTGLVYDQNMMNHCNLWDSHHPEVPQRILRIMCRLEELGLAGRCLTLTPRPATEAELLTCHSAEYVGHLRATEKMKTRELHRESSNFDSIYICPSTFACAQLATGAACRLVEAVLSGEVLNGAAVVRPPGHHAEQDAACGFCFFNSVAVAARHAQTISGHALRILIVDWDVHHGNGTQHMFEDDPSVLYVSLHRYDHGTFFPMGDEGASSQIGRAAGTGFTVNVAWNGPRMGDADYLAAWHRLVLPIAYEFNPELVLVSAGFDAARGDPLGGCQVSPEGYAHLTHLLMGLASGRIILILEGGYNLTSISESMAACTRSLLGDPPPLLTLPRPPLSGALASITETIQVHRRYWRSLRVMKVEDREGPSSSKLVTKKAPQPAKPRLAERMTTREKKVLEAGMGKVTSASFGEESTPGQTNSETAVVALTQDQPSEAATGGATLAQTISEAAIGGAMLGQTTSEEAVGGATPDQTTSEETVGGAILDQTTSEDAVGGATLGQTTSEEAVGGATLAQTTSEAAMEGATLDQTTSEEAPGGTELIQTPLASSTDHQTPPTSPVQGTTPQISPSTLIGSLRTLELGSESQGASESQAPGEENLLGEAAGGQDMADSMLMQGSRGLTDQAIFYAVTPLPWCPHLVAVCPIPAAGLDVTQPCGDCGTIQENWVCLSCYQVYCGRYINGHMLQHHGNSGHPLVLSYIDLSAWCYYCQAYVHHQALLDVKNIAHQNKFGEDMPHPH
Text: cDNAs of human HDAC1-8 and 11 were generated by RT-PCR reactions using primers complementary to the 5′ and 3′ coding sequence of human HDAC gene sequences in GenBank. cDNAs corresponding to the full length human HDAC1, 2, 3 and 11 were cloned into pBlueBac4.5 vector (Invitrogen). The constructs were used to generate recombinant baculoviruses using the Bac-N-Blue™ DNA according to the manufacturer's instructions (Invitrogen). The recombinant HDAC1, 2, 3, 11 proteins produced harbor a FLAG tag at their C-termini. cDNAs encoding truncated versions of HDAC4, 5 and 7 encompassing their deacetylase domains were cloned into pDEST10 as an N-terminal hexahistidine fusion protein and recombinant baculoviruses were generated using the Bac-to-Bac™ Baculovirus expression system (Invitrogen). HDAC6 and 8 were cloned as full length N-terminally His-tagged protein. All HDAC proteins were expressed in insect Sf-9 cells (Spodoptera frugiperdai) upon infection with recombinant baculovirus. HDAC1 enzyme was purified from the Q-sepharose FF column (Amersham Pharmacia Biotech, Baie d'Urfe QC, Canada) followed by an anti-FLAG immunoaffinity column (Sigma). HDAC2, 3 and 11 were purified using Flag-antibody immunoaffinity purification. HDAC4, 5, 6, 7 and 8 were purified using either Ni-NTA resin (QIAGEN Mississauga ON, Canada) or His-Select resin (Sigma) with step washes and elution with different concentrations of imidazole in Buffer containing 25 mM Tris (or NaPO4) pH 8.0, 10% glycerol and 150 mM or 500 mM NaCl.
Recombinant HDAC enzymes were incubated with diluted compounds in assay buffer (25 mM Hepes, pH 8.0, 137 mM NaCl, 1 mM MgCl2 and 2.7 mM KCl) for 10 minutes at ambient temperatures in black 96-well plate. Boc-Lys(Ac)-AMC (for HDAC1, 2, 3, 6, and 8 enzymes), which was purchased from Bachem Biosciences Inc., (King of Prussia, Philadelphia) were added into enzyme-compound mixture and incubated at 37° C. For HDAC4, 5, 7 assays, Boc-Lys(TFA)-AMC, which was synthesized in house, was used as substrate and 0.1% BSA was added to the buffer. […] Reaction time was predetermined to ensure that reaction was linear for the incubation time. Reaction was stopped by adding a freshly prepared trypsin (1 mg/ml final concentration) with 1 μM TSA (Biomol) in assay buffer. After 30 minutes, fluorescence was measured using a fluorometer (SPECTRAMAX GeminiXS, Molecular Devices, Sunnylvale, Calif.). The 50% inhibitory concentrations (IC50) for inhibitors were determined by analyzing dose-response inhibition curves.

[2] = tested on: human Du145 prostate tumor xenograft; experiment: Du145 prostate tumor xenograft, combination with taxol; assay type: in vivo, mouse; details: Du145, oral once daily 14 days with taxol 60 mg/kg i.v.
Protocol: Antitumor studies were done using human Du145 prostate tumor xenograft model in male BALBc/A nude mice (from Japan Crea Inc., Japan). Male nude mice were used at age 8-10 weeks. Human carcinoma cells were injected subcutaneously in the animal flank and allowed to form solid tumors. Tumor fragments (about 2 mm^2 fragments) were then removed and implanted subcutaneously to the right flank of other animals. When the tumor sizes reached about 100 to 200 mm^3, recipient animals were treated with Compound D, Compound E, Compound F, Compound G or Compound H (suspended with 0.5% HPMC) by oral administration alone, or taxol by i.v. injection (60 mg/kg), or combination of taxol with oral administration of Compound D, Compound E, Compound F, Compound G, Compound H. Typically, taxol was administered once per week by iv injection on the first day as a single administration, while Compound D, Compound E, Compound F, Compound G, or Compound H were administered once daily for 14 days. Tumor volumes and gross body weight of animals were monitored twice weekly for up to 2 weeks. Each experimental group contained at least 6 animals.

Row | SMILES | IC50 [1] [µM] | antitumor activity of taxol [2]
1 | Nc1ccccc1NC(=O)c1ccc(N2CC[C@H](Nc3cccnc3)C2)cc1 [Compound B] | > 10 | –
2 | Nc1ccc(-c2ccccc2)cc1NC(=O)c1ccc(N2CC[C@H](N)C2)cc1 [Compound D] | > 10 | Potentiation
3 | Nc1ccc(-c2ccccc2)cc1NC(=O)c1ccc(N2CCC(N)CC2)cc1 [Compound E] | > 10 | Potentiation
4 | CN1CCN(c2ccc(C(=O)Nc3cc(-c4ccccn4)ccc3N)cc2)CC1 [Compound F] | > 10 | Potentiation
5 | CN1CCN(c2ccc(C(=O)Nc3cc(-c4ccncc4)ccc3N)cc2)CC1 [Compound G] | > 10 | Potentiation
6 | CC(C)N1CCN(c2ccc(C(=O)Nc3cc(-c4ccncc4)ccc3N)cc2)CC1 [Compound H] | > 10 | Potentiation
